In general, IC50 refers to the concentration that inhibits the measured activity by half.

This note sets out measurements from US10011595B2 (Merck Sharp & Dohme Corp., priority 2014, dated 2018).

The assay deals with human orexin-2 receptor (Homo sapiens (Human), UniProt O43614). The assay is described as follows: FLIPR Ca2+ Flux Assay, orexin-2 receptor. The assay is classed as cell-based. The note with it: CHO cells expressing the human orexin-2 receptor; agonist 70 pM Ala-6,12 orexin-A; read-out: hOX2R FLIPR IC50. In a few lines: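 CHO cells expressing rat OX1 or human OX2 receptor, Fluo-4AM loaded 60 min; compound preincubated 5 min before 70 pM Ala-6,12 human orexin-A in HBSS/20 mM HEPES/0.1% BSA/2.5 mM probenecid, pH 7.4. FLIPR peak fluorescence over 5 min versus agonist-only response gives IC50.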
Sequence of human orexin-2 receptor (O43614 whole entry): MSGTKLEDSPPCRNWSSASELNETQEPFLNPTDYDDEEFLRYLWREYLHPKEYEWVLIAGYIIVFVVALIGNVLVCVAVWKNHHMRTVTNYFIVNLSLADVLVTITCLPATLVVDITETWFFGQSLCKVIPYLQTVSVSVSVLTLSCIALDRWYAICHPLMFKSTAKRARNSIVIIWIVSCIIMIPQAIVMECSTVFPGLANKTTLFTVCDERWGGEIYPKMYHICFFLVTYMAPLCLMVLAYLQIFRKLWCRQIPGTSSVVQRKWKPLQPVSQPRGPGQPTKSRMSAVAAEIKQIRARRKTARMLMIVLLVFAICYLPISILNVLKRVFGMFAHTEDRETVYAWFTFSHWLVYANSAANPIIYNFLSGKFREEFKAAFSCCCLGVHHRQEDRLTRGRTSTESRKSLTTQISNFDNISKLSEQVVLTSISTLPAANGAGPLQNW
Background: Calcium assays in cells follow changes in intracellular calcium, usually with a dye or a luminescent sensor.

As to `CN(CCN(Cc1ccccc1)C(=O)c1ccccc1-n1nccn1)c1cc(C#N)ccn1` [Example G-6, N-benzyl-N-(2-((4-cyanopyridin-2-yl)(methyl)amino)ethyl)-2-(2H-1,2,3-triazol-2-yl)benzamide], the IC50 was 112 nM.

Regarding `CCN(CCN(C)c1cc(C#N)ccn1)C(=O)c1cccnc1C(F)(F)F` [Example F-8, N-{2-[(4-cyanopyridin-2-yl)(methyl)amino]ethyl}-N-ethyl-2-(trifluoromethyl)pyridine-3-carboxamide], the IC50 was determined as 1990 nM.

`CCN(CCN(C)c1nccc(C(C)(C)O)n1)C(=O)c1cccnc1-c1ccccc1` [Example H-30, N-ethyl-N-(2-((4-(2-hydroxypropan-2-yl)pyrimidin-2-yl)(methyl)amino)ethyl)-2-phenylnicotinamide]: the IC50 was found to be 53 nM.

Turning to `CCN(CCN(C)c1cc(C#N)ccn1)C(=O)c1cccc2[nH]c(=O)oc12` [Example F-18, N-{2-[(4-cyanopyridin-2-yl)(methyl)amino]ethyl}-N-ethyl-2-oxo-2,3-dihydro-1,3-benzoxazole-7-carboxamide], the IC50 turned out to be 10000 nM.

Consider `CCN(CCN(C)c1nccc(C(C)(C)O)n1)C(=O)c1ccc(OC)nc1C1CC1` [Example H-28, 2-cyclopropyl-N-ethyl-N-(2-((4-(2-hydroxypropan-2-yl)pyrimidin-2-yl)(methyl)amino)ethyl)-6-methoxynicotinamide], for which the IC50 turned out to be 20 nM.

As for `CCN(CCN(C)c1nc(Cl)cc(N(C)C)n1)C(=O)c1ccccc1-n1nccn1` [Example E-11, N-(2-{[4-chloro-6-(dimethylamino)pyrimidin-2-yl](methyl)amino}ethyl)-N-ethyl-2-(2H-1,2,3-triazol-2-yl)benzamide], the IC50 came to 18.4 nM.

`CCN(CCN(C)c1nc(C)cc(C)n1)C(=O)c1ncccc1-n1nccn1` [Example B-22, N-{2-[(4,6-dimethylpyrimidin-2-yl)(methyl)amino]ethyl}-N-ethyl-3-(2H-1,2,3-triazol-2-yl)pyridine-2-carboxamide]: the IC50 was 32.4 nM.

Turning to `CCN(CCN(C)c1nc(C)cc(C)n1)C(=O)c1nccnc1-n1cccn1` [Example B-28, N-{2-[(4,6-dimethylpyrimidin-2-yl)(methyl)amino]ethyl}-N-ethyl-3-(1H-pyrazol-1-yl)pyrazine-2-carboxamide], the IC50 is 18.7 nM.

For `CCN(CCN(C)c1nc(C)cc(C)n1)C(=O)c1ccccc1C1CC1(F)F` (stereo not drawn) [Example B-29, 2-(2,2-difluorocyclopropyl)-N-{2-[(4,6-dimethylpyrimidin-2-yl)(methyl)amino]ethyl}-N-ethylbenzamide], the IC50 stood at 18.9 nM.

Take `CCN(CCN(C)c1cc(C#N)ccn1)C(=O)c1ccccc1-n1cccn1` [Example F-12, N-{2-[(4-cyanopyridin-2-yl)(methyl)amino]ethyl}-N-ethyl-2-(1H-pyrazol-1-yl)benzamide]: the IC50 was determined as 49.6 nM.

Regarding `CCN(CCN(C)c1cc(C#N)ccn1)C(=O)c1ccccc1-c1nnn[nH]1` [Example F-5, N-{2-[(4-cyanopyridin-2-yl)(methyl)amino]ethyl}-N-ethyl-2-(1H-tetrazol-5-yl)benzamide], the IC50 was found to be 10000 nM.

As for `CCN(CCN(C)c1nc(C)cc(C)n1)C(=O)c1cccnc1CC(F)(F)F` [Example B-21, N-{2-[(4,6-dimethylpyrimidin-2-yl)(methyl)amino]ethyl}-N-ethyl-2-(2,2,2-trifluoroethyl)pyridine-3-carboxamide], the 50% inhibitory concentration (IC50) stood at 424 nM.
